This passage reports IC50, Activity and Kd results from ChEMBL document CHEMBL6120970, “Discovery and Functional Characterization of a Potent, Selective, and Metabolically Stable PROTAC of the Protein Kinases DYRK1A and DYRK1B” (J Med Chem, 2024).

Molecules are shown by their SMILES.

Test [1] concerns the target Protein cereblon/DNA damage-binding protein 1 (Homo sapiens, UniProt Q96SW2). The experiment in a line: Displacement of Cy5-tagged thalidomide-like probe from recombinant CRBN/DDB1 (unknown origin) by competitive binding assay. It counts as protein assay.
Test [2] deals with Homeodomain-interacting protein kinase 3 (Homo sapiens) (UniProt Q9H422). Description: Binding affinity to human wild type full length HIPK3 (M1 to L344 residues) expressed in mammalian expression system at 1 uM by kinome scan assay relative to control.
For test [3], the target named is Homeodomain-interacting protein kinase 2 (Homo sapiens) (UniProt Q9H2X6). Description: Binding affinity to human wild type partial length HIPK2 (M153 to S564 residues) expressed in mammalian expression system at 1 uM by kinome scan assay relative to control.
The target in test [4] is Homeodomain-interacting protein kinase 3 (Homo sapiens) (UniProt Q9H422). Description: Binding affinity to human wild type partial length HIPK3 (M153 to N562 residues) expressed in mammalian expression system at 1 uM by kinome scan assay relative to control.
Test [5] concerns the target Casein kinase I isoform epsilon (Homo sapiens) (UniProt P49674). Description: Binding affinity to human wild type full length CSNK1E (M1 to K416 residues) expressed in Bacterial expression system at 1 uM by kinome scan assay relative to control.
Test [6] concerns the target T1, Dual specificity tyrosine-phosphorylation-regulated kinase 1A (Homo sapiens, UniProt Q13627). Description: Binding affinity to human wild type partial length DYRK1A (H129 to S509 residues) expressed in mammalian expression system at 1 uM by kinome scan assay relative to control.
In test [7] the target is T1, Dual specificity tyrosine-phosphorylation-regulated kinase 1A. Description: Binding affinity to DYRK1A (unknown origin) assessed as dissociation constant.
Test [8] addresses T2, Serine/threonine-protein kinase haspin (Homo sapiens) (UniProt Q8TF76).
T2 sequence (whole entry): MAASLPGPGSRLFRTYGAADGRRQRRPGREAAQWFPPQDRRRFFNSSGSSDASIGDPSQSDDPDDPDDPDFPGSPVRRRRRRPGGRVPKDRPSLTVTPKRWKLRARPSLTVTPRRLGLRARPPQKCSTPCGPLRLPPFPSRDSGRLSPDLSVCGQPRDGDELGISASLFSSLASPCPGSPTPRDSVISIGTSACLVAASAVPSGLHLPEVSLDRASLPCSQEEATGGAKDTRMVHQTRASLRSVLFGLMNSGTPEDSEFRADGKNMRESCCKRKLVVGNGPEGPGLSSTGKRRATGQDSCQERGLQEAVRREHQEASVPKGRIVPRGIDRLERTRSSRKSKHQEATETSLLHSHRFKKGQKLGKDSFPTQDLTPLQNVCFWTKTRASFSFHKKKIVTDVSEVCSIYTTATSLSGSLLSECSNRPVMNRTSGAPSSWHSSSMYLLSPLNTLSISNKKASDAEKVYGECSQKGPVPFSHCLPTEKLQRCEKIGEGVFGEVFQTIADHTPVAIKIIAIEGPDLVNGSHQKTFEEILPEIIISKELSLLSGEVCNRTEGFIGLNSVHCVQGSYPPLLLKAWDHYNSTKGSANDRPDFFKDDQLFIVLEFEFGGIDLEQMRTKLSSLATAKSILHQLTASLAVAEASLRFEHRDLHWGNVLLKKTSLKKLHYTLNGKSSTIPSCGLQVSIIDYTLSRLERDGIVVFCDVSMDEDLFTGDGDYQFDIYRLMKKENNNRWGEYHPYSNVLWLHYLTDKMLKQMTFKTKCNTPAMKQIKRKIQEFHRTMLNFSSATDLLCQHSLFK
The experiment in a line: Binding affinity to human wild type partial length Haspin (I452 to K798 residues) expressed in mammalian expression system at 1 uM by kinome scan assay relative to control.

In test [9] the target is Dual specificity protein kinase CLK1 (Homo sapiens) (UniProt P49759). Description: Binding affinity to human wild type full length CLK1 (M1 to I484 residues) expressed in Bacterial expression system at 1 uM by kinome scan assay relative to control.

`O=C1CCC(N2C(=O)c3cccc(NCc4cnn(C5CCN(C(=O)C6CCN(c7ccccn7)CC6)CC5)c4)c3C2=O)C(=O)N1` (centres undefined): the IC50 in test [1] was 13.3 µM.
With `Cc1nc2ccc(-c3ccnc(N)c3)nc2n1-c1ccc(N2CCN(C)CC2)cc1F`, the Activity was determined as 0.7% in test [2]; 0.3% in test [3]; 0.7% in test [4]; 0.3% in test [5]; 0% in test [6]; 0.2% in test [8]. In test [9], this compound yielded an Activity of 0.5%. Also, in [7], the Kd is 0.91 nM.

As a reminder, the IC50 is the concentration that gives 50% inhibition. As usually defined, the Kd is the concentration at which binding is half-saturated.
